Data set [1] can be described thus: loading into yeast cell wall particles. It is filed as physicochemical. As to the method: To create encapsulated pro-payloads, water-insoluble pro-payloads are dissolved in a suitable solvent compatible with the glucan particles (e.g., dimethylsulfoxide, methanol, etc.). After loading the pro-payloads into glucan shells, the glucan particle pro-payload is processed to remove the solvent.
The pro-payload CS-AcA was dissolved in a suitable solvent and combined with extracted yeast cell wall particles to create encapsulated CS-AcA.
The pro-payload INH-LA was dissolved in a suitable solvent and combined with extracted yeast cell wall particles to create encapsulated INH-LA.

The next data set concerns S. cerevisiae. The settings on record: Bard et al.; cited from earlier work.
A further data set relates to C. albicans. The settings on record: Bard et al.; cited from earlier work.
The subject of a further data set is H. pylori. The settings on record: concentration of 2 mg/L; cited from earlier work.
The nature of data set [2]: in vitro release assay of naproxen from YCWPs. It is filed as physicochemical. The note with it: pH 7. As to the method: The pro-payload Nap-An was dissolved in a suitable solvent and combined with extracted yeast cell wall particles to create encapsulated Nap-An.

The values that follow come from patent US20260207522A1, “YEAST CELL WALL PARTICLE ENCAPSULATION OF BIODEGRADABLE PRO-PAYLOADS” (UNIVERSITY OF MASSACHUSETTS, priority 2018, published 2026).

As for `NNC(=O)c1ccncc1` [INH, isoniazid], in data set [1], the “amount loaded into yeast cell wall particles” value turned out to be 0%.

As to “doxorubicin-isophorone diisocyanate [Dox-IPDI]”, in data set [1], the “amount loaded into yeast cell wall particles” value was “up to 92%”.

As to `CC(C)=CCC/C(C)=C/CO` [geraniol], the “growth of S. cerevisiae strains” value in the data set with S. cerevisiae is given as “inhibit the growth”. Besides, the “growth of C. albicans strains” value in the data set on C. albicans is recorded as “inhibit the growth”. For the same compound, in the data set with H. pylori, the “in vitro growth of H. pylori” value was “inhibited”.

On to `CCCCCCCCCCCC(=O)NNC(=O)c1ccncc1` [INH-LA, isoniazid lauric acid], for which the “amount loaded into yeast cell wall particles” value in data set [1] is reported as “up to 89%”.

With `COc1ccc2cc(C(C)C(=O)OC(=O)C(C)c3ccc4cc(OC)ccc4c3)ccc2c1` (stereo not shown) [Nap-An, naproxen anhydride], in data set [2], the “50% release time (RT50)” value is on record as “greater than 13.5 hours”.

For the compound cycloserine acetylacetone [CS-AcA], the “amount loaded into yeast cell wall particles” value in data set [1] is recorded as ≤ 70%.

As to `N[C@@H]1CON=C1O` [CS, cycloserine], the “amount loaded into yeast cell wall particles” value in data set [1] is recorded as ≤ 14%.

For doxorubicin-isoniazid [Dox-INH], the “amount loaded into yeast cell wall particles” value in data set [1] was “up to 61%”.
